Test results as given in the supplement of paper PMC11061612.

Legend:
Experiment in all cases: Bliss excess, mean over the matrix (fraction); higher = more synergy
A375 (Melanoma) = test system: A375 (Melanoma)
Procedure, shortened: (§1)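 Bliss excess equals the observed combination effect minus the expected value EA + EB − EA·EB, where EA and EB are the effects of each agent alone. Combination Emax is the second-highest inhibition within the matrix. Inhibition was scaled from CellTiter-Glo 2.0 luminescence, with 0 set by vehicle wells and 1 by blank wells, after 72 hours of two-drug dosing of cells plated in 1536-well plates.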

[1] = test system: BC-1 (B-Cell Non-Hodgkin's Lymphoma)
Procedure, shortened: as §1

[2] = test system: COR-L105 (Lung Adenocarcinoma)
Procedure, shortened: as §1

GCIY (Gastric Carcinoma) = test system: GCIY (Gastric Carcinoma)
Procedure, shortened: as §1

[3] = test system: KNS-62 (Squamous Cell Lung Carcinoma)
Procedure, shortened: as §1

[4] = test system: L-363 (Plasma Cell Myeloma)
Procedure, shortened: as §1

[5] = test system: MRK-nu-1 (Breast Carcinoma)
Procedure, shortened: as §1

[6] = test system: NCI-H1435 (Non-Small Cell Lung Carcinoma)
Procedure, shortened: as §1

[7] = test system: NCI-H2009 (Lung Adenocarcinoma)
Procedure, shortened: as §1

[8] = test system: NCI-H2023 (Non-Small Cell Lung Carcinoma)
Procedure, shortened: as §1

[9] = test system: NCI-H835 (Other Solid Carcinomas)
Procedure, shortened: as §1

[10] = test system: RPMI-8402 (T-Lymphoblastic Leukemia)
Procedure, shortened: as §1

[11] = test system: SW1463 (Colorectal Carcinoma)
Procedure, shortened: as §1

[12] = test system: C2BBe1 (Colorectal Carcinoma)
Procedure, shortened: as §1

[13] = test system: Daudi (Burkitt's Lymphoma)
Procedure, shortened: as §1

[14] = test system: GRANTA-519 (B-Cell Non-Hodgkin's Lymphoma)
Procedure, shortened: as §1

HT-144 (Melanoma) = test system: HT-144 (Melanoma)
Procedure, shortened: as §1

[15] = test system: HT-3 (Cervical Carcinoma)
Procedure, shortened: as §1

[16] = test system: NCI-H1944 (Lung Adenocarcinoma)
Procedure, shortened: as §1

[17] = test system: SNU-1 (Gastric Carcinoma)
Procedure, shortened: as §1

Row | Structure (SMILES) | Bliss excess (A375 (Melanoma)) | Bliss excess [1] | Bliss excess [2] | Bliss excess (GCIY (Gastric Carcinoma)) | Bliss excess [3] | Bliss excess [4] | Bliss excess [5] | Bliss excess [6] | Bliss excess [7] | Bliss excess [8] | Bliss excess [9] | Bliss excess [10] | Bliss excess [11] | Bliss excess [12] | Bliss excess [13] | Bliss excess [14] | Bliss excess (HT-144 (Melanoma)) | Bliss excess [15] | Bliss excess [16] | Bliss excess [17]
1 | C=CCn1c(=O)c2cnc(Nc3ccc(N4CCN(C)CC4)cc3)nc2n1-c1cccc(C(C)(C)O)n1 [AZD1775] + CCc1c2c(nc3ccc(O)cc13)-c1cc3c(c(=O)n1C2)COC(=O)[C@]3(O)CC [SN-38] (first compound max 1 µM, partner max 0.3 µM) | -0.0409 | -0.0252 | -0.0262 | -0.0431 | -0.0374 | 0.0273 | 0.0275 | 0.0158 | 0.0769 | -0.0478 | -0.0442 | 0.0012 | -0.0287 | – | – | – | – | – | – | –
2 | C=CCn1c(=O)c2cnc(Nc3ccc(N4CCN(C)CC4)cc3)nc2n1-c1cccc(C(C)(C)O)n1 [AZD1775] + Nc1ccn([C@@H]2O[C@H](CO)[C@@H](O)C2(F)F)c(=O)n1 [Gemcitabine] (first compound max 1 µM, partner max 0.3 µM) | 0.0519 | 0.0191 | -0.0263 | 0.0465 | 0.0179 | 0.125 | 0.045 | -0.0012 | 0.0606 | 0.0248 | -0.0789 | 0.0141 | -0.0109 | – | – | – | – | – | – | –
3 | CN(CCO)CC[C@H](CSc1ccccc1)Nc1ccc(S(=O)(=O)NC(=O)c2ccc(N3CCC([C@@H](O)c4ccccc4-c4ccc(Cl)cc4)CC3)cc2)cc1S(=O)(=O)C(F)(F)F [AZD4320] + CS(=O)(=O)CCNCc1ccc(-c2ccc3ncnc(Nc4ccc(OCc5cccc(F)c5)c(Cl)c4)c3c2)o1 [Lapatinib] (first compound max 1 µM, 7x7, partner max 10 µM) | 0.0275 | 0.0372 | -0.0212 | 0.0352 | -0.0185 | 0.0082 | -0.0167 | 0.0765 | -0.0017 | 0.0132 | 0.0449 | 0.0949 | 0.105 | – | – | – | – | – | – | –
4 | Cc1c2c(nn1C)CSCc1cc(n(C)n1)CSc1cc(c3ccccc3c1)OCCCc1c(C(=O)O)n(C)c3c-2c(Cl)ccc13 [AZD5991] + CS(=O)(=O)CCNCc1ccc(-c2ccc3ncnc(Nc4ccc(OCc5cccc(F)c5)c(Cl)c4)c3c2)o1 [Lapatinib] (first compound max 1 µM, 7x7, partner max 10 µM) | 0.0109 | 0.0211 | -0.0414 | 0.013 | -0.0155 | 0.0132 | 0.0112 | -0.0063 | -0.0136 | 0.0021 | 0.019 | 0.0115 | 0.0331 | – | – | – | – | – | – | –
5 | Cc1c2c(nn1C)CSCc1cc(n(C)n1)CSc1cc(c3ccccc3c1)OCCCc1c(C(=O)O)n(C)c3c-2c(Cl)ccc13 [AZD5991] + Nc1ccn([C@@H]2O[C@H](CO)[C@@H](O)C2(F)F)c(=O)n1 [Gemcitabine] (first compound max 1 µM, 7x7, partner max 0.3 µM) | 0.0115 | 0.033 | 0.0042 | 0.0091 | -0.009 | 0.0938 | 0.0571 | -0.0706 | -0.0361 | -0.0707 | 0.0842 | 0.0264 | -0.0715 | – | – | – | – | – | – | –
6 | C[C@@H]1COCCN1c1cc(C2([S@](C)(=N)=O)CC2)nc(-c2ccnc3[nH]ccc23)n1 [AZD6738] + C1CC(C1)(C(=O)[O-])C(=O)[O-].N.N.[Pt+2] [Carboplatin] (first compound max 10 µM, 7x7, partner max 10 µM) | -0.0113 | -0.0173 | -0.0272 | -0.066 | -0.0581 | -0.0089 | -0.0127 | -0.0103 | -0.0556 | -0.0208 | -0.0529 | -0.0461 | -0.0446 | – | – | – | – | – | – | –
7 | C[C@@H](Nc1cc(F)cc(F)c1)c1cc(C(=O)N(C)C)cc2c(=O)cc(N3CCOCC3)oc12 [AZD8186] + C1CN(CCC1(C(=O)N[C@@H](CCO)C2=CC=C(C=C2)Cl)N)C3=NC=NC4=C3C=CN4 [AZD5363] (first compound max 10 µM, 7x7, partner max 10 µM) | 0.011 | 0.0374 | 0.0189 | -0.012 | -0.0302 | -0.0138 | -0.0418 | 0.0283 | -0.034 | -0.0589 | -0.0164 | -0.0783 | -0.016 | – | – | – | – | – | – | –
8 | C[C@@H](Nc1cc(F)cc(F)c1)c1cc(C(=O)N(C)C)cc2c(=O)cc(N3CCOCC3)oc12 [AZD8186] + CC(=O)c1c(C)c2cnc(Nc3ccc(N4CCNCC4)cn3)nc2n(C2CCCC2)c1=O [Palbociclib] (first compound max 10 µM, 7x7, partner max 10 µM) | 0.0781 | 0.0867 | 0.0059 | 0.0171 | -0.0035 | 0.0624 | 0.0696 | 0.0802 | -0.0184 | 0.0108 | 0.0763 | 0.0013 | 0.101 | – | – | – | – | – | – | –
9 | C[C@@H](Oc1cc(-c2cnn(C3CCNCC3)c2)cnc1N)c1c(Cl)ccc(F)c1Cl [Crizotinib] + CC1=C(C(=CC=C1)Cl)NC(=O)C2=CN=C(S2)NC3=CC(=NC(=N3)C)N4CCN(CC4)CCO [Dasatinib] (first compound max 10 µM, 7x7, partner max 2 µM) | -0.0256 | 0.0312 | -0.0313 | 0.0537 | -0.0258 | 0.004 | -0.0711 | 0.0039 | 0.0662 | -0.012 | 0.0045 | 0.0006 | -0.0926 | – | – | – | – | – | – | –
10 | CC1(C)CCC(CN2CCN(c3ccc(C(=O)NS(=O)(=O)c4ccc(NCC5CCOCC5)c([N+](=O)[O-])c4)c(Oc4cnc5[nH]ccc5c4)c3)CC2)=C(c2ccc(Cl)cc2)C1 [Venetoclax] + CN(C)CCCOc1ccc(-c2ccc3ncc4c(c3c2)n(C2CCOCC2)c(=O)n4C)cn1 [AZD0156] (first compound max 1 µM, 7x7, partner max 1 µM) | -0.003 | 0.0066 | -0.0408 | 0.0131 | -0.0183 | 0.0188 | 0.0046 | -0.0029 | -0.0283 | -0.058 | – | 0.0022 | -0.045 | -0.0333 | -0.0194 | 0.0334 | 0.0366 | -0.0423 | -0.0052 | -0.0069
11 | CC1(C)CCC(CN2CCN(c3ccc(C(=O)NS(=O)(=O)c4ccc(NCC5CCOCC5)c([N+](=O)[O-])c4)c(Oc4cnc5[nH]ccc5c4)c3)CC2)=C(c2ccc(Cl)cc2)C1 [Venetoclax] + COc1cc(Nc2ncc3c(n2)-c2ccc(Cl)cc2C(c2c(F)cccc2OC)=NC3)ccc1C(=O)O [Alisertib] (first compound max 1 µM, 7x7, partner max 10 µM) | 0.0294 | -0.0492 | -0.0741 | 0.0271 | -0.0512 | -0.0115 | 0.129 | -0.0522 | 0.0023 | -0.0679 | – | -0.0525 | 0.017 | -0.0271 | -0.0718 | 0.438 | 0.0089 | -0.0262 | -0.0192 | -0.0103
12 | CC1(C)CCC(CN2CCN(c3ccc(C(=O)NS(=O)(=O)c4ccc(NCC5CCOCC5)c([N+](=O)[O-])c4)c(Oc4cnc5[nH]ccc5c4)c3)CC2)=C(c2ccc(Cl)cc2)C1 [Venetoclax] + C[C@@H]1COCCN1C2=NC(=NC(=C2)C3(CC3)[S@](=N)(=O)C)C4=C5C=CNC5=NC=C4 [AZD6738] (first compound max 1 µM, 7x7, partner max 10 µM) | -0.0308 | 0.0087 | -0.0429 | -0.0468 | -0.121 | 0.0331 | -0.0003 | -0.014 | -0.0357 | -0.0671 | – | 0.0103 | -0.06 | -0.0092 | -0.0278 | 0.0342 | 0.0378 | -0.0419 | -0.0023 | -0.0114
13 | CC1(C)CCC(CN2CCN(c3ccc(C(=O)NS(=O)(=O)c4ccc(NCC5CCOCC5)c([N+](=O)[O-])c4)c(Oc4cnc5[nH]ccc5c4)c3)CC2)=C(c2ccc(Cl)cc2)C1 [Venetoclax] + C[C@@H](Nc1cc(F)cc(F)c1)c1cc(C(=O)N(C)C)cc2c(=O)cc(N3CCOCC3)oc12 [AZD8186] (first compound max 1 µM, 7x7, partner max 3 µM) | -0.0326 | -0.0157 | -0.0359 | -0.0047 | -0.0545 | -0.001 | -0.0165 | 0.0012 | -0.0281 | -0.0539 | – | 0.0028 | -0.0393 | -0.135 | -0.0238 | 0.0281 | -0.0295 | -0.0359 | -0.034 | -0.0157
14 | CC1(C)CCC(CN2CCN(c3ccc(C(=O)NS(=O)(=O)c4ccc(NCC5CCOCC5)c([N+](=O)[O-])c4)c(Oc4cnc5[nH]ccc5c4)c3)CC2)=C(c2ccc(Cl)cc2)C1 [Venetoclax] + Cc1cc2ncnn2cc1Nc1ncc2c(n1)n(C1CCOCC1)c(=O)n2C [AZD7648] (first compound max 1 µM, 7x7, partner max 10 µM) | -0.0301 | 0.017 | -0.0512 | -0.0232 | -0.0255 | 0.0281 | 0.0037 | -0.0088 | -0.053 | -0.0513 | – | 0.0235 | -0.0479 | -0.0132 | 0.004 | 0.0007 | -0.0798 | -0.016 | 0.0189 | -0.0408
15 | CC1(C)CCC(CN2CCN(c3ccc(C(=O)NS(=O)(=O)c4ccc(NCC5CCOCC5)c([N+](=O)[O-])c4)c(Oc4cnc5[nH]ccc5c4)c3)CC2)=C(c2ccc(Cl)cc2)C1 [Venetoclax] + Cn1cnc2c(F)c(Nc3ccc(Br)cc3Cl)c(C(=O)NOCCO)cc21 [Selumetinib] (first compound max 1 µM, 7x7, partner max 3 µM) | -0.0437 | 0.0211 | -0.0491 | -0.12 | -0.047 | 0.0023 | -0.0139 | 0.0021 | -0.024 | -0.0489 | – | -0.031 | -0.0631 | -0.102 | -0.0208 | -0.03 | -0.0616 | -0.0218 | -0.0356 | -0.0541
